Test results from article PMC10760840, “Synthesis of new imine-/amine-bearing imidazo[1,2-a]pyrimidine derivatives and screening of their cytotoxic activity” (Turkish Journal of Chemistry, 2023).
Blank lines part the entries; values can stand above or below the molecule they belong to.

Legend:
MCF-7 cells = assay: Sulforhodamine B (SRB) antiproliferative assay, MCF-7; assay type: cell-based, human; details: for IC50: Homo sapiens, MCF7, 48 h, SRB; for IC50 / inhibition on cell proliferation: MCF-7 cells; for inhibition on cell proliferation: 100 μM dose, SRB screening; for Selectivity index (SI): MCF-7 relative to healthy HUVEC cells
Experimental: (§1) MCF-7 (human breast cancer) and HUVEC (human umbilical vein endothelial) cell lines were cultured and maintained in high glucose Dulbecco’s modified Eagle medium supplemented with 10% FBS (Gibco Life Technologies, Grand Island, NY, USA), 100 U/mL penicillin, and […]. The MDA–MB-231 (human breast cancer) cell line was cultured in Roswell Park Memorial Institute 1640 (RPMI 1640) medium supplemented with 10% FBS (Gibco Life Technologies), 100 U/mL penicillin, and […]. All cells were passaged by trypsin EDTA when they reached 60%–70% confluence. The cells were cultivated at 37 °C in humidified air containing 5% CO2.
(§2) The antiproliferative effects of compounds on breast cancer cells were determined by the sulforhodamine B (SRB) assay. In short, cells were seeded in a 96-well cell culture plate at a density of 5 × 10^4 cells/mL and the plate was incubated for 24 h in a CO2 incubator at 37 °C. MCF-7, MDA–MB-231, and HUVEC cells were cultured for 48 h with escalating doses (1, 5, 10, 25, 50, and 100 μM) of the derivatives for determination of the IC50 values. After incubation, the medium was removed from the wells and each well was incubated with a 10% trichloroacetic acid (TCA) solution for fixation at +4 °C for 1 h. The wells were washed five times with distilled water (dH2O) to get rid of the TCA and the plate was left to dry. Fresh 0.04 (m/V) SRB dye solution was added to each well, followed by incubation for 30 min at room temperature. The plate was then dried using an air dryer after being washed four times with 1% acetic acid solution. The wells were incubated in 10 mM of the tris-base solution (pH 10.5) for 10 min on a shaker and absorbance values were measured at 565 nm with a microplate reader (Tecan Infinite® 200 PRO, Switzerland). The IC50 values of the compounds were recorded using the software GraphPad Prism 5.

MDA–MB-231 cells = assay: Sulforhodamine B (SRB) antiproliferative assay, MDA–MB-231; assay type: cell-based, human; details: for IC50: Homo sapiens, 48 h, SRB; for IC50 / inhibition on cell proliferation: MDA–MB-231 cells; for inhibition on cell proliferation: 100 μM dose, SRB screening; for Selectivity index (SI): MDA–MB-231 relative to healthy HUVEC cells
Experimental: as §1, §2

HUVEC cells = assay: Sulforhodamine B (SRB) cytotoxicity assay, HUVEC healthy cells; assay type: cell-based; details: Homo sapiens, 48 h
Experimental: as §1
The antiproliferative effects of compounds on breast cancer cells were determined by the sulforhodamine B (SRB) assay. In short, cells were seeded in a 96-well cell culture plate at a density of 5 × 10^4 cells/mL and the plate was incubated for 24 h in a CO2 incubator at 37 °C. MCF-7, MDA–MB-231, and HUVEC cells were cultured for 48 h with escalating doses (1, 5, 10, 25, 50, and 100 μM) of the derivatives for determination of the IC50 values. […] The wells were incubated in 10 mM of the tris-base solution (pH 10.5) for 10 min on a shaker and absorbance values were measured at 565 nm with a microplate reader (Tecan Infinite® 200 PRO, Switzerland). The IC50 values of the compounds were recorded using the software GraphPad Prism 5.

Bax/Bcl-2 genes = assay: Bax/Bcl-2 mRNA expression by qPCR in MDA–MB-231 cells; assay type: cell-based, human
Experimental: The mRNA levels of the Bax and Bcl-2 genes were analyzed using a qPCR protocol, following the procedure described previously. Briefly, total RNA was extracted from MDA–MB-231 cells using the Total® RNA Purification Plus Kit, following the manufacturer’s instructions (Norgen Biotek, Thorold, ON, Canada). Subsequently, synthesis of cDNA was carried out using the high-capacity cDNA reverse transcription kit (Applied Biosystems, Foster City, CA, USA). The diluted cDNA samples were combined with specific Taqman probes and Taqman PCR Master Mix, and the amplification was recorded using Applied Biosystems 7500 Real-Time PCR systems (Applied Biosystems, Thermo Fisher Scientific) for qPCR. Changes in mRNA expression levels were determined using the comparative ΔΔCT method, with β-actin serving as an endogenous control for the qPCR analysis.

Structure (SMILES): COc1ccc(N=Cc2cn3cccnc3n2)cc1 [3c, N-(4-Methoxyphenyl)-1-(imidazo[1,2-a]pyrimidin-2-yl)methanimine]
melting point: 191 to 192 °C

Structure (SMILES): CCN(CC)c1ccc(/N=C/c2cn3cccnc3n2)cc1 [3d, N-(4-(N^ı,N^ı-Diethylamino)phenyl)-1-(imidazo[1,2-a]pyrimidin-2-yl)methanimine]
IC50 (MCF-7 cells): 43.4 µM
inhibition on cell proliferation (MCF-7 cells): greatest inhibition
Selectivity index (SI) (MCF-7 cells): 1.6
IC50 (MDA–MB-231 cells): 35.9 µM
inhibition on cell proliferation (MDA–MB-231 cells): greatest inhibition
Selectivity index (SI) (MDA–MB-231 cells): 2.0
IC50 (HUVEC cells): 71.4 µM
Bax/Bcl-2 ratio (mRNA expression level) (Bax/Bcl-2 genes; IC50 dose (4d: 35.1 μM)): did not have significant effects
Bax/Bcl-2 ratio (mRNA expression level) (Bax/Bcl-2 genes; IC50 × 2 dose (4d: 70.2 μM)): did not have significant effects
melting point: 182 to 183 °C

Structure (SMILES): FC(F)(F)c1ccc(N=Cc2cn3cccnc3n2)cc1 [3e, N-(4-Trifluoromethylphenyl)-1-(imidazo[1,2-a]pyrimidin-2-yl)methanimine]
melting point: 224 to 226 °C

Second part, led by results:

melting point: 194 to 197 °C
Structure (SMILES): c1ccc(NCc2cn3cccnc3n2)cc1 [4a, N-(Phenyl)-1-(imidazo[1,2-a]pyrimidin-2-yl)methanamine]

melting point: 217 to 219 °C
Structure (SMILES): c1ccc2c(NCc3cn4cccnc4n3)cccc2c1 [4b, N-(Naphthalen-1-yl)-1-(imidazo[1,2-a]pyrimidin-2-yl)methanamine]

melting point: 175 to 176 °C
Structure (SMILES): COc1ccc(NCc2cn3cccnc3n2)cc1 [4c, N-(4-Methoxyphenyl)-1-(imidazo[1,2-a]pyrimidin-2-yl)methanamine]

IC50 (MCF-7 cells): 39 µM
melting point: 146 to 148 °C
Structure (SMILES): CCN(CC)c1ccc(NCc2cn3cccnc3n2)cc1 [4d, N-(4-(N^ı,N^ı-Diethylamino)phenyl)-1-(imidazo[1,2-a]pyrimidin-2-yl)methanamine]
inhibition on cell proliferation (MCF-7 cells): greatest inhibition
Selectivity index (SI) (MCF-7 cells): 1.5
IC50 (MDA–MB-231 cells): 35.1 µM
inhibition on cell proliferation (MDA–MB-231 cells): greatest inhibition
Selectivity index (SI) (MDA–MB-231 cells): 1.6
IC50 (HUVEC cells): 57 µM
Bax/Bcl-2 ratio (mRNA expression level) (Bax/Bcl-2 genes; IC50 dose (4d: 35.1 μM)): 1.5 fold
Bax/Bcl-2 ratio (mRNA expression level) (Bax/Bcl-2 genes; IC50 × 2 dose (4d: 70.2 μM)): 1.8 fold

melting point: 217 to 218 °C
Structure (SMILES): FC(F)(F)c1ccc(NCc2cn3cccnc3n2)cc1 [4e, N-(4-Trifluoromethylphenyl)-1-(imidazo[1,2-a]pyrimidin-2-yl)methanamine]
